Source: patent publication US20050019825A9, “Common ligand mimics: pseudothiohydantoins” (priority 2002, published 2005)
Read-outs that look alike come from different tables or passages of the source.

What was measured:
[1] = target: dihydrodipicolinate reductase (DHPR) (Escherichia coli, UniProt P04036); assay: DHPR kinetic assay, spectrophotometric oxidation of NADPH (340 nm); format: biochemical
Method: For DHPR analysis, the compounds were screened using a kinetic protocol that spectrophotometrically evaluates oxidation of NADPH.
Stock solutions of each of the reagents were prepared in the following concentrations. Dilutions of the stock solutions were prepared prior to running the assay in the concentrations indicated below. DHPR was diluted in 10 mM HEPES at a pH of 7.4. DHPS (dihydrodipicolinate synthase) was not diluted and was stored in eppindorf tubes.
The L-ASA (L-aspartate semialdehyde) solution was prepared in the following manner. 180 μM stock solution of ASA was prepared. 100 μl of the ASA stock solution was mixed with 150 μl of concentrated NaHCO3 and 375 μl of H2O. For use in the assay, 28.8 mM L-ASA was equal to 625 μl of the solution. The L-ASA stock solution was kept at a temperature of −20° C. After dilution, the pH of the 28.8 mM solution was checked and maintained between 1 and 2.
The DHPS reaction was monitored at 340 nm prior to and after addition of the inhibitor to detect background reaction with the inhibitor. The solution for background detection was a 945 μl solution containing 0.1 HEPES (pH 7.8), 1 mM pyruvate, 6 μM NADPH, 40 μM L-ASA, and 7 μl of 1 mg/ml DHPS at 25° C. in the volumes provided above. The sample solution was then mixed and incubated for 10 minutes. Next, 500 nM solutions of the inhibitors and enough DMSO to provide a final DMSO concentration of 5% of the total assay volume were added. The solution was mixed and incubated for an additional 6 minutes.
In DHPR samples, 5 μl of the diluted DHPR enzyme were added. The sample was mixed for 20 seconds and then the reaction was run for 10 minutes. After a 50 second lag, the samples were read in a Cary spectrophotometer at 340 nm. Reading of the samples was continued until 300 seconds. Cuvette #1 contained the control reaction (no inhibitor), and cuvette #2 contained the positive control reaction in which Cibacron Blue at 2.58 μM was substituted for inhibitor to yield 70 to 80% inhibition. The substrate was kept at a level at least 10 times the Km. The final concentration of L-ASA was about 1 mM.

[2] = target: T1, lactate dehydrogenase (LDH) (Oryctolagus cuniculus, UniProt P13491); assay: LDH kinetic assay, spectrophotometric oxidation of NADH (340 nm); format: biochemical, Rabbit; settings: for IC50: common ligand mimics, Examples 23/24, LDH from Rabbit Muscle
T1 construct: 10 μl of LDH from Rabbit Muscle; from tissue; host or cells: rabbit muscle
Method: For LDH analysis, the compounds were screened using a kinetic protocol that spectrophotometrically evaluates oxidation of NADH.
Stock solutions of each of the reagents were prepared in the following concentrations. Dilutions of the stock solutions were prepared prior to running the assay in the concentrations indicated below.
The LDH reaction was monitored at 340 nm prior to and after addition of the inhibitor to detect background reaction with the inhibitor. Solutions of 100 μl of the inhibitors in DMSO were prepared to provide a final DMSO concentration of 5% of the total assay volume. These solutions were incubated for 6 minutes at 25° C. in a 990 μl of a solution containing 0.1 M HEPES, pH 7.4, 10 μM NADH, and 2.5 mM of pyruvate. The reaction was then initiated with 10 μl of LDH from Rabbit Muscle (0.5 μg/ml; 1:2000 dilution of 1.0 mg/ml). After the enzyme was added, the solution was mixed for 20 seconds, and the reaction was run for 10 minutes. After a 50 second lag, the samples were read in a Cary spectrophotometer at 340 nm. Reading of the samples was continued until 300 seconds. Cuvette #1 contained the control reaction (no inhibitor), and cuvette #2 contained the positive control reaction in which Cibacron Blue at 10.3 μM was substituted for inhibitor to yield 50 to 70% inhibition. The substrate was kept at a level at least 10 times the Km.

[3] = target: 1-deoxy-D-xylulose-5-phosphate reductase (DOXPR) (Escherichia coli, UniProt P45568); assay: DOXPR kinetic assay, spectrophotometric oxidation of NADPH (340 nm); format: biochemical
Sequence of 1-deoxy-D-xylulose-5-phosphate reductase (DOXPR) (P45568 whole entry): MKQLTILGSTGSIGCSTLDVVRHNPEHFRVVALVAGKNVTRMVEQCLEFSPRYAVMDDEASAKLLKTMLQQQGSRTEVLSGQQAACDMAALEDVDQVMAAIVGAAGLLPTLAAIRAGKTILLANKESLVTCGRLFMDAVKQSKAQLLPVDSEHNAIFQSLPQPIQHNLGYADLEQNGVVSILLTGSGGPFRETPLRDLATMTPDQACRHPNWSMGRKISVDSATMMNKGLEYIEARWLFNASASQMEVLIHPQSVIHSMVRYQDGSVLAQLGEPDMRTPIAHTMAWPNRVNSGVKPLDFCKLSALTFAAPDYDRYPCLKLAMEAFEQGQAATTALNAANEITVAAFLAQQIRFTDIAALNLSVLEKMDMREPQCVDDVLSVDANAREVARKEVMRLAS
Method: For DOXPR analysis, the compounds were screened using a kinetic protocol that spectrophotometrically evaluates oxidation of NADPH.
Stock solutions of each of the reagents were prepared in the following concentrations. Dilutions of the stock solutions were prepared prior to running the assay in the concentrations indicated below. DOXPR was diluted in 10 mM HEPES at a pH of 7.4.
The DOXPR reaction was monitored at 340 nm prior to and after addition of the inhibitor to detect background reaction with the inhibitor. Solutions of the inhibitors in DMSO were prepared to provide a final DMSO concentration of 5% of the total assay volume. These solutions were incubated for 6 minutes at 25° C. in a 990 μl of a solution containing 0.1 M HEPES, pH 7.4, 1 mM MnCl2 1.15 mM DOXP, and 8 μM NADPH. The oxidation reaction was then initiated with 10 μl of DOXP reductoisomerase (10 μg/ml). After the enzyme was added, the solution was mixed for 20 seconds, and the reaction was run for 10 minutes. After a 50 second lag, the samples were read in a Cary spectrophotometer at 340 nm. Reading of the samples was continued until 300 seconds. Cuvette #1 contained the control reaction (no inhibitor), and cuvette #2 contained the positive control reaction in which Cibacron Blue at 10.32 μM was substituted for inhibitor to yield 70 to 80% inhibition. The substrate was kept at a level at least 10 times the Km.

[4] = common ligand mimics, Examples 23/24 (FIG. 5, FIG. 6), read-out: IC50 for DHPR
[5] = common ligand mimics, Examples 23/24, read-out: IC50 for DOXPR

Sequence of dihydrodipicolinate reductase (DHPR) (P04036 whole entry): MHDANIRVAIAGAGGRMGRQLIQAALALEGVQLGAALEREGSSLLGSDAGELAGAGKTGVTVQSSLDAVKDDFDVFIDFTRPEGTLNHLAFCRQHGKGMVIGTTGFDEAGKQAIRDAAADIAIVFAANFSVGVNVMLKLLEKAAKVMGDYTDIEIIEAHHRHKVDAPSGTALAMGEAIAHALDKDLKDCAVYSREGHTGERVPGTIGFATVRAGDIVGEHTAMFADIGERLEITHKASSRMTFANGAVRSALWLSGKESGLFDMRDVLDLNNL

Row | SMILES | IC50 [1] | IC50 [2] | IC50 [3] | IC50 [1, 4] | IC50 [3, 5] | inhibition at 2.58 µM ([1]; Cibacron Blue at 2.58 μM, read-out: inhibition of DHPR, positive control) | inhibition at 10.3 µM ([2]; Cibacron Blue at 10.3 μM, read-out: inhibition of LDH, positive control) | inhibition at 10.32 µM ([3]; Cibacron Blue at 10.32 μM, read-out: inhibition of DOXPR, positive control)
1 | N=C1NC(=O)C(=Cc2ccc(O)c([N+](=O)[O-])c2)S1 [5-(4-hydroxy-3-nitro-benzylidene)-2-imino-thiazolidin-4-one] | > 100 µM | 27.9 µM | > 100 µM | – | – | – | – | –
2 | COc1cc(C=C2SC(N)=NC2=O)ccc1O [5-(4-hydroxy-3-methoxy-benzylidene)-2-imino-thiazolidin-4-one] | > 75 µM | > 100 µM | > 100 µM | – | – | – | – | –
3 | N=C1NC(=O)C(=Cc2ccc(C(=O)O)cc2)S1 [4-(2-imino-4-oxo-thiazolidin-5-ylidenemethyl)-benzoic acid] | – | > 100 µM | – | > 25 µM | > 25 µM | – | – | –
4 | Nc1c(S(=O)(=O)O)cc(Nc2ccc(Nc3nc(Cl)nc(Nc4ccccc4S(=O)(=O)O)n3)c(S(=O)(=O)O)c2)c2c1C(=O)c1ccccc1C2=O [Cibacron Blue, reference compound] | – | – | – | – | – | 70 to 80% | 50 to 70% | 70 to 80%
5 | COc1cc(O)ccc1C=C1SC(=N)NC1=O [5-(4-hydroxy-2-methoxy-benzylidene)-2-imino-thiazolidin-4-one] | – | – | – | > 75 µM | > 100 µM | – | – | –
